The record followed here is PubChem BioAssay AID256 (DTP/NCI, 2004).

The assay deals with CD2F1 mice, L1210 leukemia ip, survival T/C. In words: NCI In Vivo Anticancer Drug Screen. Data for tumor model L1210 Leukemia (intraperitoneal) in CD2F1 (CDF1) mice. The following applies: higher = longer survival. Put shortly:
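Transplantable tumor in mice; compound-treated vs vehicle-treated groups. Read-out = treated/control ratio of the measured endpoint.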

The mark [1] stands for this setting: endpoint: mean survival time, dose: 100.0 mg/kg/injection, schedule: Q04DX003 (ip), vehicle: saline with Tween-80.
Where [2] appears, read: endpoint: mean survival time, dose: 400.0 mg/kg/injection, schedule: Q04DX003 (ip), vehicle: saline with Tween-80.
The mark [3] stands for this setting: endpoint: mean survival time, dose: 100.0 mg/kg/injection, schedule: Q01DX009 (ip), vehicle: saline with Tween-80.
Setting [4] is: endpoint: mean survival time, dose: 200.0 mg/kg/injection, schedule: Q01DX009 (ip), vehicle: saline with Tween-80.
The mark [5] stands for this setting: endpoint: mean survival time, dose: 100.0 mg/kg/injection, schedule: Q01DX001 (ip), vehicle: saline with Tween-80.
Where [6] appears, read: endpoint: mean survival time, dose: 200.0 mg/kg/injection, schedule: Q01DX001 (ip), vehicle: saline with Tween-80.
Where [7] appears, read: endpoint: mean survival time, dose: 400.0 mg/kg/injection, schedule: Q01DX001 (ip), vehicle: saline with Tween-80.
Setting [8] is: endpoint: mean survival time, dose: 400.0 mg/kg/injection, schedule: Q01DX009 (ip), vehicle: saline with Tween-80.

SMILES strings stand for the structures. Where “and” joins values, the source holds several entries; their conditions need not be identical. Equal entries are not always repeated. Inconclusive results and toxic doses are left out.

With `COC(=O)CC[S+](C)CCC(=O)OC`, the T/C reads like this: (endpoint: mean survival time, dose: 7.5 mg/kg/injection, schedule: Q01DX009 (ip), vehicle: saline) 94 % of control; (endpoint: mean survival time, dose: 15.0 mg/kg/injection, schedule: Q01DX009 (ip), vehicle: saline) 98 % of control; (endpoint: mean survival time, dose: 30.0 mg/kg/injection, schedule: Q01DX009 (ip), vehicle: saline) 90 % of control.

Regarding `COc1ccc2ccccc2c1/C=N/N1CCCCC1`, the T/C is, setting by setting: under setting [1], 102 % of control; (endpoint: mean survival time, dose: 200.0 mg/kg/injection, schedule: Q04DX003 (ip), vehicle: saline with Tween-80) 102 % of control; under setting [2], 96 % of control.

Take `O=C(CNC(=O)Nc1ccc(F)cc1)N/N=C/c1ccc(Cl)c(Cl)c1`: the T/C (endpoint: mean survival time, dose: 50.0 mg/kg/injection, schedule: Q01DX009 (ip), vehicle: saline with Tween-80) is 96 % of control; the T/C under setting [3] was 96 % of control; the T/C under setting [4] is 100 % of control.

Take `Cc1ccc(S(=O)(=O)NC(=O)C(Cc2ccccc2)c2ccccc2)cc1` (centres undefined): the T/C reads like this: (endpoint: mean survival time, dose: 75.0 mg/kg/injection, schedule: Q01DX001 (ip), vehicle: other) 96 % of control; (endpoint: mean survival time, dose: 150.0 mg/kg/injection, schedule: Q01DX001 (ip), vehicle: other) 98 % of control; (endpoint: mean survival time, dose: 300.0 mg/kg/injection, schedule: Q01DX001 (ip), vehicle: other) 96 % of control.

Turning to `O=C(Nc1ccc(Cl)c(Cl)c1)Sc1ccc(Cl)cc1`, under setting [1], the T/C was 105 % of control.

Take `CC(=O)Nc1ccc2ccccc2c1-c1c(NC(C)=O)ccc2ccccc12`: the T/C by setting is: under setting [1], 87 % of control; under setting [2], 95 % of control.

Take `Cc1cc(N=CN(C)C)c2ccccc2n1`: the T/C is 106 % of control (endpoint: mean survival time, dose: 3.12 mg/kg/injection, schedule: Q01DX009 (ip), vehicle: other); 100 % of control (endpoint: mean survival time, dose: 6.25 mg/kg/injection, schedule: Q01DX009 (ip), vehicle: other); 100 % of control (endpoint: mean survival time, dose: 12.5 mg/kg/injection, schedule: Q01DX009 (ip), vehicle: other); 106 % of control and 107 % of control (endpoint: mean survival time, dose: 25.0 mg/kg/injection, schedule: Q01DX009 (ip), vehicle: other).

Turning to `CCC12C=CCN3CCC4(c5cc(C6c7[nH]c8ccccc8c7CCN7CCCCC67)c(OC)cc5N(C)C4C(O)(C(=O)OC)C1OC(C)=O)C32` (centres undefined), the T/C (endpoint: mean survival time, dose: 0.06 mg/kg/injection, schedule: Q01DX009 (ip), vehicle: other) was 93 % of control; the T/C (endpoint: mean survival time, dose: 0.13 mg/kg/injection, schedule: Q01DX009 (ip), vehicle: other) was 93 % of control; the T/C (endpoint: mean survival time, dose: 0.25 mg/kg/injection, schedule: Q01DX009 (ip), vehicle: other) is 92 % of control; the T/C (endpoint: mean survival time, dose: 0.5 mg/kg/injection, schedule: Q01DX009 (ip), vehicle: other) is 95 % of control; the T/C (endpoint: mean survival time, dose: 1.0 mg/kg/injection, schedule: Q01DX009 (ip), vehicle: other) was 90 % of control; the T/C (endpoint: mean survival time, dose: 2.0 mg/kg/injection, schedule: Q01DX009 (ip), vehicle: other) is 93 % of control. The T/C (endpoint: mean survival time, dose: 4.0 mg/kg/injection, schedule: Q01DX009 (ip), vehicle: other) is 93 % of control.

In the case of `CCCCCCCCCCCCCCCC(=O)Nc1ccn(C2OC(CO)C(O)C2O)c(=O)n1` (centres undefined), the T/C runs as follows: (endpoint: mean survival time, dose: 12.5 mg/kg/injection, schedule: Q01DX009 (ip), vehicle: saline) 213 % of control and 268 % of control; (endpoint: mean survival time, dose: 25.0 mg/kg/injection, schedule: Q01DX009 (ip), vehicle: saline) 189 % of control and 270 % of control; (endpoint: mean survival time, dose: 50.0 mg/kg/injection, schedule: Q01DX009 (ip), vehicle: saline) 225 % of control and 307 % of control; (endpoint: mean survival time, dose: 50.0 mg/kg/injection, schedule: Q04DX002 (ip), vehicle: saline) 331 % of control; (endpoint: mean survival time, dose: 100.0 mg/kg/injection, schedule: Q04DX002 (ip), vehicle: saline) 344 % of control and 345 % of control; (endpoint: mean survival time, dose: 200.0 mg/kg/injection, schedule: Q01DX009 (ip), vehicle: saline) 95 % of control. The T/C (endpoint: mean survival time, dose: 200.0 mg/kg/injection, schedule: Q04DX002 (ip), vehicle: saline) is 198 % of control.

In the case of `Cc1ccc(C2=CSc3ccccc3N2)cc1`, the T/C is 104 % of control (endpoint: mean survival time, dose: 100.0 mg/kg/injection, schedule: Q04DX002 (ip), vehicle: other) and 104 % of control (endpoint: mean survival time, dose: 200.0 mg/kg/injection, schedule: Q04DX002 (ip), vehicle: other).

For `CCC1(O)C(=O)OCc2c1cc1n(c2=O)Cc2cc3ccc([N+](=O)[O-])cc3nc2-1` (centres undefined), the T/C (endpoint: median survival time, dose: 10.0 mg/kg/injection, schedule: Q04DX002 (ip), vehicle: saline with Tween-80) is 114 % of control.

As to `CC(=O)Nc1cc2c3c(c1)CCN3CCC2`, the T/C reads like this: (endpoint: mean survival time, dose: 3.13 mg/kg/injection, schedule: Q01DX001 (ip), vehicle: saline) 100 % of control; (endpoint: mean survival time, dose: 6.25 mg/kg/injection, schedule: Q01DX001 (ip), vehicle: saline) 113 % of control; (endpoint: mean survival time, dose: 12.5 mg/kg/injection, schedule: Q01DX001 (ip), vehicle: saline) 112 % of control.

For the molecule `O=NN(CCCl)C(=O)NC1[C@H](O)CCC[C@@H]1O` (some centres undefined), the T/C is, setting by setting: (endpoint: median survival time, dose: 0.63 mg/kg/injection, schedule: Q01DX009 (ip), vehicle: saline) 167 % of control; (endpoint: median survival time, dose: 1.25 mg/kg/injection, schedule: Q01DX009 (ip), vehicle: saline) 229 % of control and 108 % of control; (endpoint: median survival time, dose: 2.5 mg/kg/injection, schedule: Q01DX009 (ip), vehicle: saline) 348 % of control and 365 % of control; (endpoint: median survival time, dose: 5.0 mg/kg/injection, schedule: Q01DX009 (ip), vehicle: saline) 348 % of control and 365 % of control; (endpoint: median survival time, dose: 10.0 mg/kg/injection, schedule: Q01DX009 (ip), vehicle: saline) 195 % of control and 218 % of control; (endpoint: median survival time, dose: 20.0 mg/kg/injection, schedule: Q01DX009 (ip), vehicle: saline) 93 % of control and 101 % of control.

Turning to `CC(=O)[O][Hg][c]1cc(-c2ccc(N=Nc3c(S(=O)(=O)O)cc4cccc(N)c4c3O)cc2)ccc1N=Nc1c(S(=O)(=O)O)cc2cccc(N)c2c1O`, the T/C is 98 % of control (endpoint: mean survival time, dose: 6.25 mg/kg/injection, schedule: Q04DX003 (ip), vehicle: saline with Tween-80); 96 % of control (endpoint: mean survival time, dose: 12.5 mg/kg/injection, schedule: Q04DX003 (ip), vehicle: saline with Tween-80); 104 % of control (endpoint: mean survival time, dose: 25.0 mg/kg/injection, schedule: Q04DX003 (ip), vehicle: saline with Tween-80).

As for `Cc1cc(C)c(S(=O)(=O)Nc2cc(C)ccc2C)c(C)c1`, the T/C under setting [5] is 98 % of control, the T/C under setting [6] is 96 % of control and the T/C under setting [7] is 102 % of control.

Take `Cc1ccc(NC(=O)/C=C/c2ccccc2)c(C)c1`: the T/C reads like this: (endpoint: mean survival time, dose: 100.0 mg/kg/injection, schedule: Q04DX002 (ip), vehicle: saline with Tween-80) 94 % of control; (endpoint: mean survival time, dose: 200.0 mg/kg/injection, schedule: Q04DX002 (ip), vehicle: saline with Tween-80) 94 % of control; (endpoint: mean survival time, dose: 400.0 mg/kg/injection, schedule: Q04DX002 (ip), vehicle: saline with Tween-80) 94 % of control.

As for `O=S(=O)(Nc1ccc(NS(=O)(=O)c2ccccc2)c(N2CCOCC2)c1)c1ccccc1`, the T/C is, setting by setting: under setting [5], 101 % of control; under setting [6], 101 % of control; under setting [7], 92 % of control.

Take `Cc1ccc(C(=O)CCCCl)c(C)c1`: the T/C by setting is: under setting [3], 111 % of control; under setting [4], 104 % of control; under setting [8], 104 % of control.

For the molecule `O=C1C2C3C=CC(O3)C2C(=O)N1Cc1ccncc1` (centres undefined), the T/C was 108 % of control (endpoint: mean survival time, dose: 100.0 mg/kg/injection, schedule: Q01DX001 (ip), vehicle: saline); 100 % of control (endpoint: mean survival time, dose: 200.0 mg/kg/injection, schedule: Q01DX001 (ip), vehicle: saline); 101 % of control (endpoint: mean survival time, dose: 400.0 mg/kg/injection, schedule: Q01DX001 (ip), vehicle: saline).

With `O=C1C=C(N2CCCC2)c2ccccc21`, the T/C is, setting by setting: (endpoint: mean survival time, dose: 100.0 mg/kg/injection, schedule: Q04DX003 (ip), vehicle: Klucel (hydroxypropylcellulose) (HPC)) 106 % of control; (endpoint: mean survival time, dose: 200.0 mg/kg/injection, schedule: Q04DX003 (ip), vehicle: Klucel (hydroxypropylcellulose) (HPC)) 97 % of control; (endpoint: mean survival time, dose: 400.0 mg/kg/injection, schedule: Q04DX003 (ip), vehicle: Klucel (hydroxypropylcellulose) (HPC)) 95 % of control.

With `CN(C=O)c1ccccc1C(=O)O`, the T/C is, setting by setting: under setting [5], 98 % of control; under setting [3], 96 % of control; under setting [6], 101 % of control; under setting [4], 91 % of control; under setting [7], 98 % of control; under setting [8], 97 % of control.

Turning to `CCN(CC)c1ncnc2nncnc12`, the T/C (endpoint: mean survival time, dose: 100.0 mg/kg/injection, schedule: Q01DX001 (ip), vehicle: carboxymethylcellulose (CMC)) is 101 % of control and the T/C (endpoint: mean survival time, dose: 200.0 mg/kg/injection, schedule: Q01DX001 (ip), vehicle: carboxymethylcellulose (CMC)) was 96 % of control.
